Measured values reported in patent US20170266089A1, “USE OF LIPOPHILIC SALICYLIC ACID DERIVATIVES” (L'OREAL, priority 2014, published 2017).

Tests used:
[1] = test system: Transglutaminase 3 (TGM3) transcripts; assay: Expression of TGM3 transcripts in keratinocytes (RT-qPCR); type: cell-based; conditions: human epidermic keratinocytes, 24 hours, compound at 15 μm; for TGM3 transcript expression, fold change (fc) compared to control: normalized to RPL13A and GAPDH, N=3
Procedure: (§1) The influence of the compounds (A′) and (F), in particular obtained according to the process indicated above, on the renewal of the epidermis and on the barrier effect of the skin was evaluated in vitro by measuring the expression of TGM1 and TGM3 transcripts in keratinocytes.
(§2) Human epidermic keratinocytes were incubated for 24 hours in the presence or not (control) of compound (A′) or (F). At the end of the incubation, total RNAs were extracted and quantified. The expression of TGM1 and TGM3 transcripts was then measured using a two-step RT-qPCR method with a LightCycler® device according to the technique of incorporation of SYBR®Green (Qiagen). The expression of these transcripts was normalized with the expression of two housekeeping genes, RPL13A and GAPDH. The experiments were reproduced 3 times (N=3).
(§3) The results are given in Table (VI) below, fold change (fc) compared to control.

[2] = test system: Transglutaminase 1 (TGM1) transcripts; assay: Expression of TGM1 transcripts in keratinocytes (RT-qPCR); type: cell-based; conditions: human epidermic keratinocytes, 24 hours, compound at 15 μm; for TGM1 transcript expression, fold change (fc) compared to control: normalized to RPL13A and GAPDH, N=3
Procedure: as §1, §2, §3

[3] = test system: laminin-5; assay: Ex vivo immunolabelling of laminin-5 in skin explants; set-up: species or system human; conditions: topical 2 mg per explant, compound (F) 5% in water, LHA 5% in ethanol, symbols proportional
Procedure: (§4) The anti-ageing effect of the compound (F), in particular obtained according to the process indicated above, at 5% in water, was evaluated ex vivo by immunolabelling of the proteins collagen III, membrane transglutaminase (MTG), filaggrin and laminin-5, in comparison with LHA (lipohydroxy acid, 2-hydroxy-5-octanoylbenzoic acid) at 5% in ethanol.
(§5) 111 explants with a diameter of approximately 10 mm were prepared from abdominal plastic surgery on a person. These explants were kept alive.
(§6) On day […], the explants were placed on a grid in 2 ml of culture medium. […]
(§7) At D0, D6 and D11, the explants were sampled from the culture medium and cut in two. […] The labellings were evaluated by a microscopic examination. […]
(§8) The microscopic observations were carried out in optical microscopy and fluorescence microscopy, using a Leica microscope of Orthoplan or DMLB type. […]
Immunolabelling of Laminin-5 The labelling of laminin-5 was carried out on frozen sections with a monoclonal antibody, clone P3E4 (Santa Cruz sc-13587), at 1/300th, for 30 minutes at ambient temperature with a biotin/streptavidin amplifying system, visualized in FITC (Caltag sa1001). […] The labelling was evaluated by a microscopic examination. […]
The results obtained with the compound (F) and LHA are assessed, at equivalent date, by comparison with the results obtained in the absence of treatment (control test). […]

[4] = test system: membrane transglutaminase (MTG); assay: Ex vivo immunolabelling of membrane transglutaminase (MTG) in skin explants; set-up: species or system human; conditions: topical 2 mg per explant, compound (F) 5% in water, LHA 5% in ethanol, symbols proportional
Procedure: as §4, §5, §6, §7, §8
Membrane transglutaminase was labelled on frozen sections with a monoclonal antibody, clone B.C1 (Harbor Bio Product ref. 5003), at 1/100th, for 2 h at ambient temperature with a Vectastain RTU Universal, Vector, avidin/biotin amplifying system and visualized in FITC. […] The labelling was evaluated by a microscopic examination. […]
The results obtained with the compound (F) and […] are assessed, at equivalent date, by comparison with the results obtained in the absence of treatment (control test). […]

Structure (SMILES): CCCCCCCCCCCCCCCc1cccc(O)c1C(=O)O [Compound (A′), 6-peritadecylsalicylic acid]
- Stimulation of the expression of TGM3 transcripts (class in words) [1]: strong stimulation
- TGM3 transcript expression, fold change (fc) compared to control [1]: 20 fc
- Stimulation of the expression of TGM1 transcripts (class in words) [2]: strong stimulation
- TGM1 transcript expression, fold change (fc) compared to control [2]: 6.0 fc

Structure (SMILES): CCCCCCCCCCCCCCCc1cccc(O)c1C(=O)O [Compound (F)]
- Stimulation of the expression of TGM3 transcripts (class in words) [1]: good stimulation
- TGM3 transcript expression, fold change (fc) compared to control [1]: 3.0 fc
- Laminin-5 expression level, difference in comparison with the control at D11 [3]: No variation
- Stimulation of the expression of TGM1 transcripts (class in words) [2]: average stimulation
- TGM1 transcript expression, fold change (fc) compared to control [2]: 1.7 fc
- MTG expression level, difference in comparison with the control at D6 [4]: No variation

Structure (SMILES): CCCCCCCC(=O)c1ccc(O)c(C(=O)O)c1 [LHA, 2-hydroxy-5-octanoylbenzoic acid, reference compound]
- Laminin-5 expression level, difference in comparison with the control at D11 [3]: No variation
